Test results taken from PMC9791658 (Journal of Medicinal Chemistry, 2022).

Assays:
14-3-3ζ/ERα_pT594 = 14-3-3ζ/ERα_pT594 (Homo sapiens, UniProt P03372+P63104); assay: Fluorescence polarization; assay type: binding; settings: FP assay
Caco-2 cells = assay: Permeability across Caco-2 cell monolayers; assay type: in vitro ADME; settings: for permeability classification: Caco-2; for increase of permeability vs 1: Caco-2 Papp(A to B) relative to compound 1
14-3-3ζ/GR_pT524 [1] = molecular target: 14-3-3ζ/GR_pT524 (Homo sapiens, UniProt P04150+P63104); assay: Fluorescence polarization; assay type: binding; settings: for 14-3-3/GR PPI stabilization activity (in words): FP assay
14-3-3ζ/GR_pT524 [2] = molecular target: T1, 14-3-3ζ/GR_pT524 (Homo sapiens, UniProt P63104); assay: SPR assay of GR_pT524 with 14-3-3ζ in the absence and presence of FC-A; assay type: binding; settings: FC-A 1 mM
T1 sequence (P63104 1-245): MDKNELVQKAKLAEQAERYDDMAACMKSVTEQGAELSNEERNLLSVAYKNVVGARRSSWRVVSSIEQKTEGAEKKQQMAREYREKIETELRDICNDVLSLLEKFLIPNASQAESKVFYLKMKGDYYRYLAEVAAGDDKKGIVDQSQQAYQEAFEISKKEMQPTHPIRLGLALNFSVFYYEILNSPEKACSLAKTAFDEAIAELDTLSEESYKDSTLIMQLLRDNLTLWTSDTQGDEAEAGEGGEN

Row | SMILES | 14-3-3/ERα PPI stabilization activity (in words) (14-3-3ζ/ERα_pT594) | 14-3-3/GR PPI stabilization activity (in words) (14-3-3ζ/GR_pT524 [1]) | also measured
1 | O=C(O)c1cc(N2C(=O)C(O)=C(c3ccccc3)C2c2ccc([N+](=O)[O-])cc2)ccc1O (single isomer, unassigned; (+)) [(+)-28, 2-Hydroxy-5-(3-hydroxy-5-(4-nitrophenyl)-2-oxo-4-phenyl-2,5-dihydro-1H-pyrrol-1-yl) benzoic Acid] | no 14-3-3/ERα PPI stabilization activity | – | –
2 | O=C(O)c1cc(N2C(=O)C(O)=C(c3ccccc3)C2c2ccc([N+](=O)[O-])cc2)ccc1O (single isomer, unassigned; (-)) [(−)-28, 2-Hydroxy-5-(3-hydroxy-5-(4-nitrophenyl)-2-oxo-4-phenyl-2,5-dihydro-1H-pyrrol-1-yl) benzoic Acid] | no 14-3-3/ERα PPI stabilization activity | – | –
3 | O=C(C1=C(O)C(=O)N(c2ccc(O)c(C(=O)O)c2)[C@H]1c1ccc([N+](=O)[O-])cc1)c1ccccc1 [(S)-1, 5-(3-Benzoyl-4-hydroxy-2-(4-nitrophenyl)-5-oxo-2,5-dihydro-1H-pyrrol-1-yl)-2-hydroxybenzoic Acid] | completely inactive | – | –
4 | O=C(C1=C(O)C(=O)N(c2ccc(O)c(C(=O)O)c2)C1c1ccc([N+](=O)[O-])cc1)c1ccccc1 (centres unmarked) [Compound 1, 5-(3-Benzoyl-4-hydroxy-2-(4-nitrophenyl)-5-oxo-2,5-dihydro-1H-pyrrol-1-yl)-2-hydroxybenzoic Acid] | – | – | permeability classification (Caco-2 cells): low permeability; decrease in potency for 14-3-3/GR compared to 14-3-3/ERα (14-3-3ζ/GR_pT524 [1]; from EC1.2 values): approximately 2 fold
5 | Nc1ccc(C2C(C(=O)c3ccccc3)=C(O)C(=O)N2c2ccc(O)c(C(=O)O)c2)cc1 (centres unmarked) [Compound 17, 5-(2-(4-Aminophenyl)-3-benzoyl-4-hydroxy-5-oxo-2,5-dihydro-1H-pyrrol-1-yl)-2-hydroxybenzoic Acid] | loss of measurable activity | loss of measurable activity | –
6 | O=C(C1=C(O)C(=O)N(c2ccc(O)c(C(=O)O)c2)C1c1ccc([N+](=O)[O-])cc1)c1cccc(OC(F)F)c1 (centres unmarked) [Compound 19, 5-(3-(3-(Difluoromethoxy)benzoyl)-4-hydroxy-2-(4-nitrophenyl)-5-oxo-2,5-dihydro-1H-pyrrol-1-yl)-2-hydroxybenzoic Acid] | abolished activity | abolished activity | –
7 | O=C(C1=C(O)C(=O)N(c2ccc(O)c(C(=O)O)c2)C1c1ccccc1)c1ccccc1 (centres unmarked) [Compound 21, 5-(3-Benzoyl-4-hydroxy-5-oxo-2-phenyl-2,5-dihydro-1H-pyrrol-1-yl)-2-hydroxybenzoic Acid] | loss of measurable activity | loss of measurable activity | –
8 | O=C(C1=C(O)C(=O)N(c2ccc(O)cc2)C1c1ccc([N+](=O)[O-])cc1)c1ccccc1 (centres unmarked) [Compound 22, 4-Benzoyl-3-hydroxy-1-(4-hydroxyphenyl)-5-(4-nitrophenyl)-1,5-dihydro-2H-pyrrol-2-one] | – | only marginal activity | permeability classification (Caco-2 cells): medium permeability; increase of permeability vs 1 (Caco-2 cells): 3 fold
9 | O=C(C1=C(O)C(=O)N(c2ccccc2O)C1c1ccc([N+](=O)[O-])cc1)c1ccccc1 (centres unmarked) [Compound 23, 4-Benzoyl-3-hydroxy-1-(2-hydroxyphenyl)-5-(4-nitrophenyl)-1,5-dihydro-2H-pyrrol-2-one] | – | only marginal activity | permeability classification (Caco-2 cells): medium permeability; increase of permeability vs 1 (Caco-2 cells): 5 fold
10 | O=C(O)c1cc(N2C(=O)C(O)=C(c3ccccc3)C2c2ccc([N+](=O)[O-])cc2)ccc1O (centres unmarked) [Compound 28, 2-Hydroxy-5-(3-hydroxy-5-(4-nitrophenyl)-2-oxo-4-phenyl-2,5-dihydro-1H-pyrrol-1-yl) benzoic Acid] | inactive | – | –
11 | C=CC(C)(C)OC[C@H]1O[C@H](O[C@@H]2C3=C([C@H](C)COC(C)=O)C[C@H](O)[C@]3(C)/C=C3/[C@@H](COC)CC[C@H]3[C@@H](C)[C@H]2O)[C@H](O)[C@@H](O)[C@@H]1O [FC-A, Fusicoccin A, reference compound] | – | does not stabilize | effect on the interaction between GR_pT524 and 14-3-3ζ (SPR) (14-3-3ζ/GR_pT524 [2]): does not stabilize
